In PubChem BioAssay AID248 (DTP/NCI, 2004):
Several values for one entry are separate records, joined by “and”; a condition that tells them apart may be missing. Equal values may be shown once. Toxic doses and inconclusive results are not listed. Rule as the data show it: active = T/C of 150% or more; inactive = T/C below 125%. Peptide text beside a SMILES is read from it. * marks the point of attachment. CH2Cl = ClC*

Test system: L1210 leukemia ip in BDF1 mice, survival T/C
Test: NCI In Vivo Anticancer Drug Screen. Data for tumor model L1210 Leukemia (intraperitoneal) in B6D2F1 (BDF1) mice
Settings: endpoint: mean survival time, higher = longer survival
Procedure, shortened: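 Value reflects the ratio of survival in compound-treated mice to survival in vehicle-treated controls, with both groups carrying the same transplanted tumor.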

[1] = dose: 100.0 mg/kg/injection, schedule: Q01DX009 (ip), vehicle: Klucel (hydroxypropylcellulose) (HPC)
[2] = dose: 200.0 mg/kg/injection, schedule: Q01DX009 (ip), vehicle: Klucel (hydroxypropylcellulose) (HPC)
[3] = dose: 400.0 mg/kg/injection, schedule: Q01DX009 (ip), vehicle: Klucel (hydroxypropylcellulose) (HPC)
[4] = dose: 100.0 mg/kg/injection, schedule: Q04DX002 (ip), vehicle: Klucel (hydroxypropylcellulose) (HPC)
[5] = dose: 200.0 mg/kg/injection, schedule: Q04DX002 (ip), vehicle: Klucel (hydroxypropylcellulose) (HPC)
[6] = dose: 400.0 mg/kg/injection, schedule: Q04DX002 (ip), vehicle: Klucel (hydroxypropylcellulose) (HPC)
[7] = dose: 100.0 mg/kg/injection, schedule: Q01DX009 (ip), vehicle: saline with Tween-80
[8] = dose: 200.0 mg/kg/injection, schedule: Q01DX009 (ip), vehicle: saline with Tween-80
[9] = dose: 100.0 mg/kg/injection, schedule: Q04DX003 (ip), vehicle: Klucel (hydroxypropylcellulose) (HPC)
[10] = dose: 200.0 mg/kg/injection, schedule: Q04DX003 (ip), vehicle: Klucel (hydroxypropylcellulose) (HPC)
[11] = dose: 400.0 mg/kg/injection, schedule: Q04DX003 (ip), vehicle: Klucel (hydroxypropylcellulose) (HPC)
[12] = dose: 100.0 mg/kg/injection, schedule: Q01DX001 (ip), vehicle: acetone
[13] = dose: 200.0 mg/kg/injection, schedule: Q01DX001 (ip), vehicle: acetone
[14] = dose: 100.0 mg/kg/injection, schedule: Q04DX003 (ip), vehicle: saline with Tween-80
[15] = dose: 200.0 mg/kg/injection, schedule: Q04DX003 (ip), vehicle: saline with Tween-80
[16] = dose: 100.0 mg/kg/injection, schedule: Q01DX001 (ip), vehicle: saline
[17] = dose: 200.0 mg/kg/injection, schedule: Q01DX001 (ip), vehicle: saline

Measured: T/C

O=C([O-])C(=O)[O-].[Cu+2].[OH2+]CC[N-]CC[OH2+].[OH2+]CC[N-]CC[OH2+]
inactive: dose: 5.0 mg/kg/injection, schedule: Q01DX001 (ip), vehicle: saline 97 % of control | dose: 10.0 mg/kg/injection, schedule: Q01DX001 (ip), vehicle: saline 92 % of control | dose: 20.0 mg/kg/injection, schedule: Q01DX001 (ip), vehicle: saline 103 % of control

S=C(NCc1cccc2ccccc12)Nc1ccccc1
inactive: [1] 95 % of control | [2] 97 % of control | [3] 104 % of control

CC1(C)CN(CCC#N)C(c2ccc([N+](=O)[O-])cc2)O1 (stereo unspecified)
inactive: dose: 50.0 mg/kg/injection, schedule: Q01DX001 (ip), vehicle: carboxymethylcellulose (CMC) 106 % of control | dose: 100.0 mg/kg/injection, schedule: Q01DX001 (ip), vehicle: carboxymethylcellulose (CMC) 106 % of control | dose: 200.0 mg/kg/injection, schedule: Q01DX001 (ip), vehicle: carboxymethylcellulose (CMC) 114 % of control | dose: 400.0 mg/kg/injection, schedule: Q01DX001 (ip), vehicle: carboxymethylcellulose (CMC) 108 % of control

Nc1ccnc(SCc2ccccc2)n1
inactive: dose: 100.0 mg/kg/injection, schedule: Q01DX001 (ip), vehicle: saline with Tween-80 90 % of control | dose: 200.0 mg/kg/injection, schedule: Q01DX001 (ip), vehicle: saline with Tween-80 93 % of control | dose: 400.0 mg/kg/injection, schedule: Q01DX001 (ip), vehicle: saline with Tween-80 93 % of control

CCP(C)(C)=S
inactive: dose: 25.0 mg/kg/injection, schedule: Q04DX002 (ip), vehicle: Klucel (hydroxypropylcellulose) (HPC) 101 % of control | dose: 50.0 mg/kg/injection, schedule: Q04DX002 (ip), vehicle: Klucel (hydroxypropylcellulose) (HPC) 101 % of control | [4] 108 % of control

CCCCCCCCCCCCCCCCCCNC(=O)Nc1ccccc1OC
inactive: [4] 101 % of control | [5] 107 % of control | [6] 96 % of control

C=CCOC(=O)CCCCCCCCCCC
inactive: [7] 107 % of control | [8] 107 % of control | dose: 400.0 mg/kg/injection, schedule: Q01DX009 (ip), vehicle: saline with Tween-80 96 % of control

C1SCC12CSC2
inactive: dose: 6.25 mg/kg/injection, schedule: Q01DX001 (ip), vehicle: saline with Tween-80 93 % of control | dose: 12.5 mg/kg/injection, schedule: Q01DX001 (ip), vehicle: saline with Tween-80 96 % of control | dose: 25.0 mg/kg/injection, schedule: Q01DX001 (ip), vehicle: saline with Tween-80 104 % of control

C=CCN(CC=C)c1nc(N(CC)CC)nc(N(CC)CC)n1
inactive: dose: 25.6 mg/kg/injection, schedule: Q04DX002 (ip), vehicle: saline with Tween-80 91 % of control | dose: 64.0 mg/kg/injection, schedule: Q04DX002 (ip), vehicle: saline with Tween-80 97 % of control | dose: 160.0 mg/kg/injection, schedule: Q04DX002 (ip), vehicle: saline with Tween-80 102 % of control | dose: 400.0 mg/kg/injection, schedule: Q04DX002 (ip), vehicle: saline with Tween-80 112 % of control

CCCc1ccc(C(=O)O)cc1
inactive: [1] 95 % of control | [2] 91 % of control | [3] 98 % of control

CCCCCC[Si](Cl)(Cl)Cl
inactive: dose: 75.0 mg/kg/injection, schedule: Q01DX001 (ip), vehicle: saline 101 % of control | dose: 150.0 mg/kg/injection, schedule: Q01DX001 (ip), vehicle: saline 91 % of control

CCOC(=O)NC(C)(C)CC(C)(C)C
inactive: [1] 101 % of control | [9] 108 % of control | [2] 98 % of control | [10] 94 % of control | [3] 103 % of control | [11] 97 % of control

O=[N+]([O-])c1cccn2nc(-c3ccccc3)nc12
inactive: [12] 98 % of control | [13] 98 % of control | dose: 400.0 mg/kg/injection, schedule: Q01DX001 (ip), vehicle: acetone 101 % of control

Cc1cccc(N=C(N)N=C(N)N)c1
inactive: [14] 102 % of control | [15] 88 % of control

CC1CCN(C(CC(=O)c2ccccc2)C(=O)c2ccccc2)CC1 (stereo unspecified)
inactive: dose: 50.0 mg/kg/injection, schedule: Q01DX001 (ip), vehicle: saline 104 % of control | [16] 98 % of control | [17] 102 % of control | dose: 400.0 mg/kg/injection, schedule: Q01DX001 (ip), vehicle: saline 96 % of control

CC(C)CN(OC(=O)c1ccccc1)[N+](=O)[O-]
inactive: dose: 50.0 mg/kg/injection, schedule: Q04DX002 (ip), vehicle: saline 94 % of control | dose: 100.0 mg/kg/injection, schedule: Q04DX002 (ip), vehicle: saline 108 % of control | dose: 200.0 mg/kg/injection, schedule: Q04DX002 (ip), vehicle: saline 102 % of control

CC(=O)NC(CC(C)C)C(=O)NC(Cc1ccccc1)C(=O)CCl (stereo not drawn) (Ac-Leu-Phe-CH2Cl; configuration not given here)
inactive: [4] 94 % of control | [5] 98 % of control | [6] 102 % of control

O=c1[nH]cc(F)c(=O)[nH]1.[Tl]
inactive: dose: 3.12 mg/kg/injection, schedule: Q04DX003 (ip), vehicle: water 108 % of control | dose: 6.25 mg/kg/injection, schedule: Q04DX003 (ip), vehicle: water 107 % of control | dose: 12.5 mg/kg/injection, schedule: Q01DX009 (ip), vehicle: Klucel (hydroxypropylcellulose) (HPC) 102 % of control | dose: 12.5 mg/kg/injection, schedule: Q04DX003 (ip), vehicle: water 118 % of control

O=C(OCCCl)OCCCl
inactive: dose: 25.0 mg/kg/injection, schedule: Q01DX009 (ip), vehicle: saline with Tween-80 98 % of control | dose: 50.0 mg/kg/injection, schedule: Q01DX009 (ip), vehicle: saline with Tween-80 103 % of control and 91 % of control | [7] 93 % of control | [8] 92 % of control

N#CC(/C=C/c1ccccc1)NCC(O)c1ccccc1 (stereo unspecified)
inactive: dose: 100.0 mg/kg/injection, schedule: Q01DX009 (ip), vehicle: saline sonified 95 % of control | dose: 200.0 mg/kg/injection, schedule: Q01DX009 (ip), vehicle: saline sonified 95 % of control | dose: 400.0 mg/kg/injection, schedule: Q01DX009 (ip), vehicle: saline sonified 95 % of control

COc1ccc(C(=O)N(C)c2ccccc2)cc1
inactive: [9] 94 % of control | [10] 89 % of control | [11] 93 % of control

Nc1ccc2nc(NCCCO)c3ccccc3c2c1
inactive: [9] 107 % of control | [10] 113 % of control | [11] 102 % of control

Cc1ccc(/C=N/NC(=O)c2ccc(N=NN(C)C)cc2)cc1
inactive: dose: 50.0 mg/kg/injection, schedule: Q04DX003 (ip), vehicle: Klucel (hydroxypropylcellulose) (HPC) 95 % of control | [9] 99 % of control | [10] 100 % of control

CN1CCN(C(CO)Cc2ccccc2)CC1 (stereo unspecified)
inactive: [16] 98 % of control | [17] 104 % of control

COC(=O)C1(C)CCCC2(C)c3cc(OC)ccc3C3OC3C12 (stereo unspecified)
inactive: dose: 100.0 mg/kg/injection, schedule: Q04DX003 (ip), vehicle: other 103 % of control | dose: 200.0 mg/kg/injection, schedule: Q04DX003 (ip), vehicle: other 100 % of control | dose: 400.0 mg/kg/injection, schedule: Q04DX003 (ip), vehicle: other 101 % of control

Cc1cccnc1C(=O)O
inactive: dose: 50.0 mg/kg/injection, schedule: Q04DX003 (ip), vehicle: saline with Tween-80 94 % of control | [16] 94 % of control | [14] 95 % of control | [17] 94 % of control | [15] 91 % of control

N#Cc1nnn(-c2ccccc2)n1
inactive: dose: 25.0 mg/kg/injection, schedule: Q01DX009 (ip), vehicle: acetone 101 % of control | dose: 50.0 mg/kg/injection, schedule: Q01DX009 (ip), vehicle: acetone 111 % of control | dose: 50.0 mg/kg/injection, schedule: Q04DX003 (ip), vehicle: acetone 93 % of control | [12] 99 % of control | dose: 100.0 mg/kg/injection, schedule: Q04DX003 (ip), vehicle: acetone 88 % of control | [13] 99 % of control
